Source: US20240018140A1, “MODIFIED IMIDAZOPYRIDINES AS GLUCOSYLCERAMIDE SYNTHASE INHIBITORS” (Merck Sharp & Dohme LLC, priority 2020, published 2024)

Each compound was assayed against glucosylceramide synthase (GCS) (Homo sapiens (Human), UniProt Q16739) (assay: UDP-Glo glucosylceramide synthase biochemical assay). Details: endogenous GCS in Golgi preparations from human A375 malignant melanoma skin cells; C6 ceramide and UDP-glucose substrates; 20 h incubation; UDP detected by luminescence.
Text: UDP-Glo™ Glucosylceramide Synthase Biochemical Assay
A UDP-Glo™ glucosylceramide synthase biochemical assay was utilized to evaluate the effect of test compounds on the activity of endogenous levels of GCS enzyme contained within Golgi preparations isolated from human A375 malignant melanoma skin cells. The UDP-Glo™ glucosylceramide synthase assay uses UDP-Glucose as a nucleotide-glycosyl donor and ceramide as substrate acceptor molecules. In the reaction, glucosylceramide synthase (GCS) transfers glucose from UDP-Glucose to ceramide. Glucosylceramide and UDP are released as products.
Using Promega's UDP-Glo™ Glycosyltransferase assay kit (Promega Corporation, Madison, WI, USA (Promega)), GCS activity was indirectly measured by detecting the amount of UDP produced. An aliquot of GCS enzyme (1.5 μg crude golgi preparation, total protein) and titrated test compound were aliquoted to each well and incubated for 30 minutes at room temperature. […] An equivalent volume of substrate mixture was then added to each well. Following a 20 h incubation at room temperature to allow for GCS turnover of substrate, an equal volume of UDP detection reagent (Promega) was added to each well and incubated for an additional 75 minutes at room temperature to simultaneously convert the accumulated UDP product into ATP and generate light in a luciferase reaction. The generated light was detected using a luminometer. […] luminescence values (RLUs) were normalized to mean “min” and “max” effects, as determined on each plate. “Min” was defined as the mean of the values of the wells treated with vehicle (DMSO) and which represent 0% inhibition; “max” was defined as the mean of the values of the wells treated with a reference inhibitor and which represent the 100% effect. Values for % Emax and EC50 were determined by best-fitting the normalized data to a curve in Activity Base along a four-parameter logistic nonlinear regression (4PL) model (based on the Levenberg-Marquardt algorithm and defined by the equation below): […]
where: n is 4PMin (bottom of the curve); m is 4PMax (top of the curve); i is IP (inflection point of curve); and p is slope. See Levenberg, K., “A Method for the Solution of Certain Problems in Least Squares”, Quart. Appl. Math. 2, (1944), pp 164-168 and Marquardt, D., “An Algorithm for Least Squares Estimation on Nonlinear Parameters”, SIAM J. Appl. Math. 11, (1963) pp 431-441.

glucosylceramide synthase (GCS), sequence (Q16739 whole entry): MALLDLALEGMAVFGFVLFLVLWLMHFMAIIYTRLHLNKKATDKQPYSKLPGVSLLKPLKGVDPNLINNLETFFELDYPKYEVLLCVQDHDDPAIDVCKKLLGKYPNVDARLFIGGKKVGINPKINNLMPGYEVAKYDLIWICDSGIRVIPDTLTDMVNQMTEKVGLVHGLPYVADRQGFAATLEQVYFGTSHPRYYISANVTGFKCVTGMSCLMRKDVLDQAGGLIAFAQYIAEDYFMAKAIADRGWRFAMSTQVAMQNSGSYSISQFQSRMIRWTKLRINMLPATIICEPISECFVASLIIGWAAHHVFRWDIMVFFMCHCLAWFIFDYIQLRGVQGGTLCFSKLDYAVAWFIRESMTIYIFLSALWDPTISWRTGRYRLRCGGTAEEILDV

Question: Which EC50 does the source give for OC(c1cn2cc(Cl)cc(-c3ccccc3OCC(F)(F)F)c2n1)C1CC1 (stereo not drawn) [Compound 65, [6-chloro-8-[2-(2,2,2-trifluoroethoxy)phenyl]imidazo[1,2-a]pyridin-2-yl]-cyclopropyl-methanol] here?
Answer: The EC50 was 1.3 nM.

Question: O=C(NC1CCCOC1)c1cn2cccc(-c3ccccc3OCC(F)(F)F)c2n1 (single isomer, unassigned) [Compound 2, (R or S)-N-(tetrahydro-2H-pyran-3-yl)-8-(2-(2,2,2-trifluoroethoxy)phenyl)imidazo[1,2-a]pyridine-2-carboxamide] was tested. Which EC50 did it give?
Answer: The EC50 was 6.1 nM.

Question: With O=C(N[C@H]1CC[C@H](O)CC1)c1cn2cc(Cl)cc(-c3ccccc3OCC(F)(F)F)c2n1 [Compound 24, 6-chloro-N-(trans-4-hydroxycyclohexyl)-8-(2-(2,2,2-trifluoroethoxy)phenyl)imidazo[1,2-a]pyridine-2-carboxamide] as the compound, how does the EC50 read?
Answer: The EC50 was 0.36 nM.

Question: Which EC50 does the source give for CC1(O)CCC(NC(=O)c2cn3cc(F)cc(-c4ccccc4OCC(F)(F)F)c3n2)CC1 (stereo not drawn) [Compound 26, cis or trans-6-fluoro-N-(4-hydroxy-4-methylcyclohexyl)-8-(2-(2,2,2-trifluoroethoxy)phenyl)imidazo[1,2-a]pyridine-2-carboxamide] here?
Answer: Its EC50 is 0.79 nM.

Question: For O=C(NC(c1cccnc1)C(F)(F)F)c1cn2cccc(-c3ccccc3OCC(F)(F)F)c2n1 (racemic) [Compound 38, (R and S)-N-(2,2,2-trifluoro-1-(pyridin-3-yl)ethyl)-8-(2-(2,2,2-trifluoroethoxy)phenyl)imidazo[1,2-a]pyridine-2-carboxamide], which EC50 is on record?
Answer: Its EC50 is 5.5 nM.

Question: How did the EC50 turn out when N#Cc1cnccc1NC(=O)c1cn2cccc(-c3ccccc3OCC(F)(F)F)c2n1 [Compound 59, N-(3-cyanopyridin-4-yl)-8-(2-(2,2,2-trifluoroethoxy)phenyl)imidazo[1,2-a]pyridine-2-carboxamide] was run?
Answer: The EC50 was 6 nM.

Question: With O=C(NC12CC(CO)(C1)C2)c1cn2cccc(-c3ccccc3OCC(F)(F)F)c2n1 [Compound 47, N-(3-(hydroxymethyl)bicyclo[1.1.1]pentan-1-yl)-8-(2-(2,2,2-trifluoroethoxy)phenyl)imidazo[1,2-a]pyridine-2-carboxamide] as the compound, how does the EC50 read?
Answer: Its EC50 is 9.2 nM.

Question: COc1cc(-c2ccccc2OCC(F)(F)F)c2nc(C(=O)NC(C)(C)C(F)(F)F)cn2c1 [Compound 43, 6-methoxy-N-(1,1,1-trifluoro-2-methylpropan-2-yl)-8-(2-(2,2,2-trifluoroethoxy)phenyl)imidazo[1,2-a]pyridine-2-carboxamide] was tested. Which EC50 did it give?
Answer: The EC50 was 2.1 nM.

Question: For O=C(N[C@H]1CC[C@H](O)CC1)c1cn2cc(C(F)(F)F)cc(-c3ccccc3OCC(F)(F)F)c2n1 [Compound 36, N-(trans-4-hydroxycyclohexyl)-8-(2-(2,2,2-trifluoroethoxy)phenyl)-6-(trifluoromethyl)imidazo[1,2-a]pyridine-2-carboxamide], which EC50 is on record?
Answer: Its EC50 is 2.1 nM.

Question: How did the EC50 turn out when COc1ccc(Cl)cc1-c1cccn2cc(C(=O)NC34CCC(O)(CC3)C4)nc12 [Compound 30, 8-(5-chloro-2-methoxyphenyl)-N-(4-hydroxybicyclo[2.2.1]heptan-1-yl)imidazo[1,2-a]pyridine-2-carboxamide] was run?
Answer: The EC50 was 5.6 nM.

Question: With CC(O)c1cn2cc(Cl)cc(-c3ccccc3OCC(F)(F)F)c2n1 (stereo not drawn) [Compound 64, 1-[6-chloro-8-[2-(2,2,2-trifluoroethoxy)phenyl]imidazo[1,2-a]pyridin-2-yl]ethanol] as the compound, how does the EC50 read?
Answer: Its EC50 is 13 nM.

Question: Which EC50 does the source give for O=C(Nc1ccc[n+]([O-])c1)c1cn2cccc(-c3ccccc3OCC(F)(F)F)c2n1 [Compound 58, 3-(8-(2-(2,2,2-trifluoroethoxy)phenyl)imidazo[1,2-a]pyridine-2-carboxamido)pyridine-1-oxide] here?
Answer: Its EC50 is 28 nM.

Question: With O=C(c1cn2cc(C(F)(F)F)cc(-c3ccccc3OCC(F)(F)F)c2n1)N1CCOC2(COC2)C1 [Compound 51, (2,5-dioxa-8-azaspiro[3.5]nonan-8-yl)(8-(2-(2,2,2-trifluoroethoxy)phenyl)-6-(trifluoromethyl)imidazo[1,2-a]pyridin-2-yl)methanone] as the compound, how does the EC50 read?
Answer: Its EC50 is 0.51 nM.

Question: O=C(NC1CCCC1)c1cn2cc(F)cc(-c3ccccc3OCC(F)(F)F)c2n1 [Compound 28, N-cyclopentyl-6-fluoro-8-(2-(2,2,2-trifluoroethoxy)phenyl)imidazo[1,2-a]pyridine-2-carboxamide] was tested. Which EC50 did it give?
Answer: Its EC50 is 7.4 nM.

Question: How did the EC50 turn out when O=C(NC1CNCCC1(F)F)c1cn2cccc(-c3ccccc3OCC(F)(F)F)c2n1 (racemic) [Compound 17, (R and S)-N-(4,4-difluoropiperidin-3-yl)-8-(2-(2,2,2-trifluoroethoxy)phenyl)imidazo[1,2-a]pyridine-2-carboxamide] was run?
Answer: Its EC50 is 1.2 nM.

Question: With O=C(N[C@@H]1CNCC[C@H]1F)c1cn2cccc(-c3ccccc3OCC(F)(F)F)c2n1 (relative stereo) [Compound 16, N-(trans-4-fluoropiperidin-3-yl)-8-(2-(2,2,2-trifluoroethoxy)phenyl)imidazo[1,2-a]pyridine-2-carboxamide] as the compound, how does the EC50 read?
Answer: The EC50 was 0.83 nM.

Question: O=C(Nc1ccc2cccc(-c3ccccc3OCC(F)(F)F)c2n1)[C@H]1C[C@@H](O)C1 [Compound 81, cis-3-hydroxy-N-(8-(2-(2,2,2-trifluoroethoxy)phenyl)quinolin-2-yl)cyclobutane-1-carboxamide] was tested. Which EC50 did it give?
Answer: The EC50 was 11 nM.

Question: Which EC50 does the source give for NC(CNC(=O)c1cn2cc(Cl)cc(-c3ccccc3OCC(F)(F)F)c2n1)C(F)(F)F (stereo not drawn) [Compound 23, N-(2-amino-3,3,3-trifluoropropyl)-6-chloro-8-(2-(2,2,2-trifluoroethoxy)phenyl)imidazo[1,2-a]pyridine-2-carboxamide] here?
Answer: Its EC50 is 10 nM.

Question: With CC(C)(O)c1cn2cc(Cl)cc(-c3ccccc3OCC(F)(F)F)c2n1 [Compound 66, 2-(6-chloro-8-(2-(2,2,2-trifluoroethoxy)phenyl)imidazo[1,2-a]pyridin-2-yl)propan-2-ol] as the compound, how does the EC50 read?
Answer: The EC50 was 15 nM.

Question: Which EC50 does the source give for CN(CCN1CCCC1)C(=O)c1cn2cccc(-c3ccccc3OCC(F)(F)F)c2n1 [Compound 54, N-methyl-N-(2-(pyrrolidin-1-yl)ethyl)-8-(2-(2,2,2-trifluoroethoxy)phenyl)imidazo[1,2-a]pyridine-2-carboxamide] here?
Answer: Its EC50 is 3 nM.

Question: How did the EC50 turn out when O=C(Nc1ccc2c(F)ccc(-c3ccccc3OCC(F)(F)F)c2n1)[C@H]1C[C@H](O)C1 [Compound 83, trans-N-(5-fluoro-8-(2-(2,2,2-trifluoroethoxy)phenyl)quinolin-2-yl)-3-hydroxycyclobutane-1-carboxamide] was run?
Answer: Its EC50 is 6.9 nM.

Question: How did the EC50 turn out when CC1(C)OCC1NC(=O)c1cn2cccc(-c3ccccc3OCC(F)(F)F)c2n1 (stereo not drawn) [Compound 53, N-(2,2-dimethyloxetan-3-yl)-8-(2-(2,2,2-trifluoroethoxy)phenyl)imidazo[1,2-a]pyridine-2-carboxamide] was run?
Answer: The EC50 was 30 nM.

Question: Which EC50 does the source give for CC(C)(C#N)CNC(=O)c1cn2cc(Cl)cc(-c3ccccc3OCC(F)(F)F)c2n1 [Compound 8, 6-chloro-N-(2-cyano-2-methylpropyl)-8-(2-(2,2,2-trifluoroethoxy)phenyl)imidazo[1,2-a]pyridine-2-carboxamide] here?
Answer: The EC50 was 4.5 nM.

Question: For OCc1cn2cc(C(F)(F)F)cc(-c3ccccc3OCC(F)(F)F)c2n1 [Compound 62, (8-(2-(2,2,2-trifluoroethoxy)phenyl)-6-(trifluoromethyl)imidazo[1,2-a]pyridin-2-yl)methanol], which EC50 is on record?
Answer: Its EC50 is 17 nM.

Question: How did the EC50 turn out when CC1(C)CN=C(c2cn3cc(Cl)cc(-c4ccccc4OCC(F)(F)F)c3n2)O1 [Compound 69, 2-(6-chloro-8-(2-(2,2,2-trifluoroethoxy)phenyl)imidazo[1,2-a]pyridin-2-yl)-5,5-dimethyl-4,5-dihydrooxazole] was run?
Answer: The EC50 was 15 nM.

Question: CN1CC2(C1)CN(C(=O)c1cn3cccc(-c4ccccc4OCC(F)(F)F)c3n1)CCO2 [Compound 49, (2-methyl-5-oxa-2,8-diazaspiro[3.5]nonan-8-yl)(8-(2-(2,2,2-trifluoroethoxy)phenyl)imidazo[1,2-a]pyridin-2-yl)methanone] was tested. Which EC50 did it give?
Answer: Its EC50 is 18 nM.

Question: With O=C(N[C@H]1CC[C@@H](CO)CC1)c1cn2cc(F)cc(-c3ccccc3OCC(F)(F)F)c2n1 [Compound 27, 6-fluoro-N-(cis-4-(hydroxymethyl)cyclohexyl)-8-(2-(2,2,2-trifluoroethoxy)phenyl)imidazo[1,2-a]pyridine-2-carboxamide] as the compound, how does the EC50 read?
Answer: Its EC50 is 1.3 nM.

Question: For CC(C)(C)NC(=O)c1cn2cc(F)cc(-c3ccccc3OCC(F)(F)F)c2n1 [Compound 13, N-(tert-butyl)-6-fluoro-8-(2-(2,2,2-trifluoroethoxy)phenyl)imidazo[1,2-a]pyridine-2-carboxamide], which EC50 is on record?
Answer: Its EC50 is 5.8 nM.

Question: For O=C(N[C@H]1C[C@@H](CO)C1)c1cn2cccc(-c3ccccc3OCC(F)(F)F)c2n1 [Compound 40], which EC50 is on record?
Answer: The EC50 was 6.7 nM.

Question: With O=C(N[C@H]1CC[C@H](O)CC1)c1nc2c(-c3ccccc3OCC(F)(F)F)cccn2c1F [Compound 32, 3-fluoro-N-(trans-4-hydroxycyclohexyl)-8-(2-(2,2,2-trifluoroethoxy)phenyl)imidazo[1,2-a]pyridine-2-carboxamide] as the compound, how does the EC50 read?
Answer: The EC50 was 47 nM.
